Measurements published in patent publication US20050042213A1, “Methods and pharmaceutical compositions for modulating heparanase activation and uses thereof” (InSight Biopharmaceuticals Ltd., priority 2003, published 2005).

Key:
[1] = molecular target: T1, pro-heparanase (H60) (Homo sapiens, UniProt Q9Y251, K307R); test: Surface plasmon resonance, interaction with the pro-heparanase polypeptide; type: binding; conditions: data not shown
T1 sequence (Q9Y251 36-543 K307R): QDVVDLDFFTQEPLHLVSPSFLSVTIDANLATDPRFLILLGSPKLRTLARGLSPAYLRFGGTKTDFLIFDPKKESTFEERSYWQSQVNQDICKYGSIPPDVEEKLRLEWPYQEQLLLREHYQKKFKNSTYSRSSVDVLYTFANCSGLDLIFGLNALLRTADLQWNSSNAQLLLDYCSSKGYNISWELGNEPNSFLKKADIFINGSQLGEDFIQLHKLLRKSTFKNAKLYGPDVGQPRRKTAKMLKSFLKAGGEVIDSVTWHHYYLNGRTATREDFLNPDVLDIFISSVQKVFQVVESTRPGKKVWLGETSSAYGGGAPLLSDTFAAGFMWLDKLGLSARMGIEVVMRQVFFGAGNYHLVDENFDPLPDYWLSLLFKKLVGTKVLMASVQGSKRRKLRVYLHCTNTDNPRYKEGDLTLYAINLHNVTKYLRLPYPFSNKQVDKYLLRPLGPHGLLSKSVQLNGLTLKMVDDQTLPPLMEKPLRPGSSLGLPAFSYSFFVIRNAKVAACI

[2] = molecular target: T2, pro-heparanase transiently expressed in 293 cells (Homo sapiens, UniProt Q9Y251, K307R); test: Pro-heparanase processing in transiently transfected 293 cells (Western blot); type: cell-based
T2 sequence (Q9Y251 36-543 K307R): T1 sequence (Q9Y251 36-543 K307R)
Procedure: Western blot analysis—Western blot analysis was performed using rabbit anti-heparanase polyclonal antibodies as described in U.S. Pat. Nos. 6,177,545; 6,531,129; and 6,562,950.
Transient transfections—293 cells (200,000) were plated onto a 6 well tissue culture plate. 24 hrs later, the cells were transfected with 1 μg pSI (Promega) hpa plasmid (U.S. Pat. No. 6,475,763) in 3 μl Fugene reagent that was pre-incubated for 15 min in 100 μl medium without serum. Cells were treated with inhibitors 4 and 17 hrs following transfection.

[3] = molecular target: T1, pro-heparanase (H60); test: Circular dichroism spectrometry of pro-heparanase; conditions: data not shown
Procedure: Circular Dichroism spectrometry—Circular Dichroism spectra were recorded using a JASCO 500 spetropolarimeter. Far Ultraviolet measurements (260-200 nm) were performed in a 0.1 mm demountable cuvette at 25° C., scanning at a rate of 10 nm/min. Pro-heparanase was assayed at a concentration of 0.72 mg/ml in 20 mM sodium phosphate buffer pH 6.8 supplemented with 300 mM NaCl. Effect of heparin on pro-heparanase spectra was determined at a concentration of 100 μM, and the inhibitor was added at a concentration of 15 μM. Base-line recordings were performed in the presence and absence of heparin to correct the pro-heparanase spectra.

[4] = tested on: HT1080 cells; test: In vitro assay of invasion inhibition (matrigel, BD BioCoat); type: cell-based; conditions: Homo sapiens, HT-1080
Procedure: In vitro assay of invasion inhibition—The ability of the compounds of the invention to inhibit cell invasion was determined quantitatively by the in vitro Endothelial Cell Migration assay using a BD BioCoat Angiogenesis System kit. The kit consisted of a 24-multiwell insert plate (FluoroBlok, BD Falcon) containing a microporous (3.0 μm pore size) polyethylene terephthalate (PET) membrane that was capable of blocking fluorescence completely (>99% efficiency). This membrane was uniformly coated with matrigel (BD Matrigel Matrix). The uniform layer of matrigel matrix served as a reconstituted authentic basement membrane in vitro, providing a true barrier to non-invasive cells, but allowing endothelial cells to attach to the membrane and freely migrate towards an angiogenic stimulus in the lower chamber of the insert plate. Post-labeling the cells with a fluorescent dye and measuring the fluorescence of invading cells in a fluorescent plate reader, provided quantitative measurement of cell invasion.
To cover the optimal seeding density for HT1080 cells, suspensions containing various cell concentrations were prepared: 1 ml of 3×10^5 cells/ml, 8 ml of 1.5×10^5 cells/ml and 1 ml of 0.75×10^5 cells/ml. […] Only those labeled cells that have invaded the matrigel and passed through the pores of the PET membrane, were detected.

[5] = molecular target: T1, pro-heparanase (H60); test: Pro-heparanase activation in a cell-based assay (293 cells, DMB assay); conditions: inhibition of pro-heparanase activation (H60); Table 15
[6] = molecular target: T3, VEGF (Homo sapiens, UniProt P15692); test: Elisa assay for binding of VEGF to heparin; conditions: inhibition of VEGF binding to heparin
T3 sequence (P15692 27-191 isoform P15692-4): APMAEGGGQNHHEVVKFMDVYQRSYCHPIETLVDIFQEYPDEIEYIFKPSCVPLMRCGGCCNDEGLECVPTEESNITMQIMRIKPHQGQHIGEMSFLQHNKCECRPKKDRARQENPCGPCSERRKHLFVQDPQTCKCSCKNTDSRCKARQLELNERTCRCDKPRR
Procedure: Elisa assay for determination of binding of VEGF to heparin—96 well microplates were coated overnight with Heparin-albumin (Lizard) and blocked with 1% BSA in PBS with 0.05% Tween and 0.01% thimerosal for 2 hrs. VEGF was added to the plates at a concentration of 2 ng/ml and incubated for 45 min. at 23-25° C. The amount of VEGF bound to heparin was detected using anti-VEGF monoclonal antibody (Sigma Cat. # V4758) at a concentration of 0.26 μg/ml and secondary antibodies Sheep anti-mouse IgG linked to horseradish peroxidase (1:2000). TMB (Pierce Cat. #34021) was used as a substrate for peroxidase.
The plates were read at 450 nm with a reference wavelength of 630 nm using a VERSAmax plate reader. […] Percent inhibition was calculated as compared with the control reactions pre-incubated with 1% DMSO only.

- binding to the H60 molecule [1]: reversibly bind
- pro-heparanase expression [2]: did not affect pro-heparanase expression
- change in conformation of H60 induced by heparin [3]: prevents the change in conformation
- IC50 [4]: 12 µM
- IC50 [5]: 0.13 µM
- IC50 [6]: 3.2 µM
SMILES: O=C(O)CCCN1C(=O)C(=Cc2ccc(-c3ccc([N+](=O)[O-])cc3)o2)SC1=S [Compound 5]
- pro-heparanase processing [2]: completely inhibited pro-heparanase processing
